“And” between values parts separate entries of the source, which are not always exact repeats. Equal values may be shown once. Inconclusive results and toxic doses are left out. The calls were made as follows: active = survival T/C of 150% or more; inactive = T/C below 125% in these data.
Test system: BDF1 mice, B16 melanoma ip, median survival T/C
Assay: NCI In Vivo Anticancer Drug Screen. Data for tumor model B16 Melanoma (intraperitoneal) in B6D2F1 (BDF1) mice
Settings: endpoint: median survival time, higher = longer survival
In short: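 The ratio T/C compares compound-treated mice with vehicle-treated controls, using survival or tumor size as the endpoint in a transplantable tumor model.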

[1] = dose: 100.0 mg/kg/injection, schedule: Q04DX003 (ip), vehicle: Klucel (hydroxypropylcellulose) (HPC)
[2] = dose: 200.0 mg/kg/injection, schedule: Q04DX003 (ip), vehicle: Klucel (hydroxypropylcellulose) (HPC)
[3] = dose: 50.0 mg/kg/injection, schedule: Q01DX009 (ip), vehicle: saline with Tween-80
[4] = dose: 100.0 mg/kg/injection, schedule: Q01DX009 (ip), vehicle: saline with Tween-80
[5] = dose: 50.0 mg/kg/injection, schedule: Q01DX009 (ip), vehicle: Klucel (hydroxypropylcellulose) (HPC)
[6] = dose: 100.0 mg/kg/injection, schedule: Q01DX009 (ip), vehicle: Klucel (hydroxypropylcellulose) (HPC)
[7] = dose: 200.0 mg/kg/injection, schedule: Q01DX009 (ip), vehicle: Klucel (hydroxypropylcellulose) (HPC)
[8] = dose: 400.0 mg/kg/injection, schedule: Q01DX009 (ip), vehicle: Klucel (hydroxypropylcellulose) (HPC)
[9] = dose: 200.0 mg/kg/injection, schedule: Q01DX009 (ip), vehicle: saline with Tween-80
[10] = dose: 25.0 mg/kg/injection, schedule: Q01DX009 (ip), vehicle: Klucel (hydroxypropylcellulose) (HPC)
[11] = dose: 50.0 mg/kg/injection, schedule: Q01DX009 (ip), vehicle: saline
[12] = dose: 100.0 mg/kg/injection, schedule: Q01DX009 (ip), vehicle: saline
[13] = dose: 200.0 mg/kg/injection, schedule: Q01DX009 (ip), vehicle: saline
[14] = dose: 400.0 mg/kg/injection, schedule: Q01DX009 (ip), vehicle: saline
[15] = dose: 12.5 mg/kg/injection, schedule: Q01DX009 (ip), vehicle: saline with Tween-80
[16] = dose: 25.0 mg/kg/injection, schedule: Q01DX009 (ip), vehicle: saline with Tween-80

Measured: T/C

NC(=O)c1ncn(C2OC(CO)C(O)C2O)n1 (stereo not drawn)
inactive: dose: 20.0 mg/kg/injection, schedule: Q01DX009 (ip), vehicle: saline 90 % of control | dose: 40.0 mg/kg/injection, schedule: Q01DX009 (ip), vehicle: saline 102 % of control | dose: 50.0 mg/kg/injection, schedule: Q04DX003 (ip), vehicle: Klucel (hydroxypropylcellulose) (HPC) 102 % of control | dose: 80.0 mg/kg/injection, schedule: Q01DX009 (ip), vehicle: saline 97 % of control | [1] 95 % of control | dose: 160.0 mg/kg/injection, schedule: Q01DX009 (ip), vehicle: saline 108 % of control | [2] 98 % of control

C[N+](C)(CCO)Cc1ccccc1
inactive: [3] 95 % of control | [4] 90 % of control

Cc1ccc(C2NC(=O)c3ccccc3N2)s1 (stereo not drawn)
inactive: [5] 99 % of control | [6] 102 % of control | [7] 105 % of control | [8] 96 % of control

C/C=C(/C#N)c1ccccc1
inactive: dose: 50.0 mg/kg/injection, schedule: Q04DX003 (ip), vehicle: saline with Tween-80 100 % of control | dose: 100.0 mg/kg/injection, schedule: Q04DX003 (ip), vehicle: saline with Tween-80 97 % of control

COc1cc2[nH]c(C)c(CCN3CCN(c4ccccc4)CC3)c2cc1OC
inactive: dose: 0.04 mg/kg/injection, schedule: Q01DX009 (ip), vehicle: Klucel (hydroxypropylcellulose) (HPC) 107 % of control | dose: 0.09 mg/kg/injection, schedule: Q01DX009 (ip), vehicle: Klucel (hydroxypropylcellulose) (HPC) 92 % of control | dose: 0.19 mg/kg/injection, schedule: Q01DX009 (ip), vehicle: Klucel (hydroxypropylcellulose) (HPC) 93 % of control | dose: 0.39 mg/kg/injection, schedule: Q01DX009 (ip), vehicle: Klucel (hydroxypropylcellulose) (HPC) 106 % of control | dose: 0.78 mg/kg/injection, schedule: Q01DX009 (ip), vehicle: Klucel (hydroxypropylcellulose) (HPC) 102 % of control

CC(O)C(O)C(O)C(/C=N\N=C(/N)[S-])=N/N=C(\N)[S-].[Pt+2] (stereo not drawn)
inactive: [4] 95 % of control | [9] 102 % of control | dose: 400.0 mg/kg/injection, schedule: Q01DX009 (ip), vehicle: saline with Tween-80 105 % of control

OC1CCCC2CCC[N-]C12.OC1CCCC2CCC[N-]C12.[Mn+2] (stereo not drawn)
inactive: dose: 12.5 mg/kg/injection, schedule: Q01DX009 (ip), vehicle: Klucel (hydroxypropylcellulose) (HPC) 109 % of control | [10] 95 % of control | [5] 105 % of control | [6] 94 % of control | [7] 98 % of control

O=[N+]([O-])c1ccc(/C=C2/c3cc(Cl)ccc3-c3c(Cl)cc(Cl)cc32)o1
inactive: [11] 93 % of control | [12] 100 % of control | [13] 90 % of control | [14] 88 % of control

CS(=O)(=O)Nc1ccc(C(=O)O)cc1
inactive: [6] 100 % of control | [7] 102 % of control

CCCCCCCCCCCCCCCC(=O)N(C/C=C/CN(C(=O)CCCCCCCCCCCCCCC)C(C)CCCN(CC)CC)C(C)CCCN(CC)CC (stereo not drawn)
inactive: dose: 3.13 mg/kg/injection, schedule: Q01DX009 (ip), vehicle: other 98 % of control | dose: 6.25 mg/kg/injection, schedule: Q01DX009 (ip), vehicle: other 99 % of control | dose: 12.5 mg/kg/injection, schedule: Q01DX009 (ip), vehicle: other 93 % of control

CC1(C)CC(O)(Cc2ccccc2)C(=O)c2ccccc21 (stereo not drawn)
inactive: [5] 94 % of control | [6] 94 % of control | [7] 99 % of control | [8] 97 % of control

COc1cccc(CC(C)[N+](=O)[O-])c1 (stereo not drawn)
inactive: dose: 45.0 mg/kg/injection, schedule: Q01DX009 (ip), vehicle: saline with Tween-80 109 % of control | dose: 90.0 mg/kg/injection, schedule: Q01DX009 (ip), vehicle: saline with Tween-80 100 % of control | dose: 180.0 mg/kg/injection, schedule: Q01DX009 (ip), vehicle: saline with Tween-80 86 % of control

O=C(OCCOCCOCCOC(=O)c1ccccc1)c1ccccc1
inactive: [8] 121 % of control

Cc1cccnc1C
inactive: dose: 25.0 mg/kg/injection, schedule: Q04DX003 (ip), vehicle: saline 103 % of control | dose: 50.0 mg/kg/injection, schedule: Q04DX003 (ip), vehicle: saline 104 % of control | dose: 100.0 mg/kg/injection, schedule: Q04DX003 (ip), vehicle: saline 112 % of control

CC(=O)O[C@@H]1[C@@H](O)C2=C3[C@]4(C)[C@@H]1C(C)(C)C(=O)C[C@@H]4[C@]3(O)[C@H](OC(C)=O)[C@@]1(C[C@@H]1C)C2=O
inactive: dose: 1.0 mg/kg/injection, schedule: Q01DX009 (ip), vehicle: saline with Tween-80 115 % of control | dose: 2.0 mg/kg/injection, schedule: Q01DX009 (ip), vehicle: saline with Tween-80 109 % of control | dose: 3.12 mg/kg/injection, schedule: Q01DX009 (ip), vehicle: saline with Tween-80 97 % of control and 101 % of control | dose: 4.0 mg/kg/injection, schedule: Q01DX009 (ip), vehicle: saline with Tween-80 102 % of control | dose: 6.25 mg/kg/injection, schedule: Q01DX009 (ip), vehicle: saline with Tween-80 104 % of control | dose: 8.0 mg/kg/injection, schedule: Q01DX009 (ip), vehicle: saline with Tween-80 114 % of control | [15] 119 % of control | [16] 104 % of control | [3] 101 % of control

O=C1C(=O)c2ccccc2C(O)=C1CCCc1ccc(C2CCCCCC2)cc1
inactive: [16] 123 % of control | [3] 114 % of control

COc1ccc(NC(=S)NNC(=S)NNc2ccccc2)cc1
inactive: [1] 97 % of control | [2] 93 % of control | dose: 400.0 mg/kg/injection, schedule: Q04DX003 (ip), vehicle: Klucel (hydroxypropylcellulose) (HPC) 86 % of control

CCn1c(=O)c2[nH]c(Cl)nc2n(CC)c1=O
inactive: dose: 1.25 mg/kg/injection, schedule: Q## X032 (ip), vehicle: water 103 % of control | dose: 2.5 mg/kg/injection, schedule: Q## X032 (ip), vehicle: water 101 % of control | dose: 5.0 mg/kg/injection, schedule: Q## X032 (ip), vehicle: water 103 % of control | dose: 10.0 mg/kg/injection, schedule: Q## X032 (ip), vehicle: water 97 % of control

CCN(CC)C(=O)C1CN2CCc3cc(OC)c(OC)cc3C2CC1O (stereo not drawn)
inactive: dose: 25.0 mg/kg/injection, schedule: Q01DX009 (ip), vehicle: saline 90 % of control | [11] 100 % of control | [12] 100 % of control | [13] 102 % of control | [14] 100 % of control

CC(=O)N(C)O
inactive: [16] 98 % of control | [3] 107 % of control | [4] 101 % of control | [9] 103 % of control

CC(C)(C)OC(=O)NC(Cc1ccc(OCc2c(Cl)cccc2Cl)cc1)C(=O)O (stereo not drawn)
inactive: [16] 101 % of control | [3] 104 % of control | [4] 86 % of control

COC(=O)C12Oc3ccc(-c4ccc5c(c4O)C(=O)C4=CCC(C)C(O)C4(C(=O)OC)O5)c(O)c3C(=O)C1=CCC(C)C2O (stereo not drawn)
inactive: dose: 2.5 mg/kg/injection, schedule: Q01DX009 (ip), vehicle: saline with Tween-80 97 % of control | dose: 5.0 mg/kg/injection, schedule: Q01DX009 (ip), vehicle: saline with Tween-80 86 % of control and 98 % of control | dose: 10.0 mg/kg/injection, schedule: Q01DX009 (ip), vehicle: saline with Tween-80 88 % of control and 98 % of control

COc1ccc(NC(=O)c2cccc(C(=O)Nc3ccc(OC)cc3)c2)cc1
inactive: [6] 102 % of control | [7] 108 % of control | [8] 102 % of control

c1ccc(CNC(Cc2ccccc2)c2ccc(OCc3ccccc3)cc2)cc1 (stereo not drawn)
inactive: [6] 106 % of control | [7] 96 % of control | [8] 93 % of control

COc1ccc(N2C(=O)CC(Sc3ccccc3N)C2=O)cc1 (stereo not drawn)
inactive: [10] 94 % of control | [5] 86 % of control | [6] 97 % of control

ClC[P+](c1ccccc1)(c1ccccc1)c1ccccc1
inactive: dose: 2.5 mg/kg/injection, schedule: Q01DX009 (ip), vehicle: saline 120 % of control | dose: 5.0 mg/kg/injection, schedule: Q01DX009 (ip), vehicle: saline 106 % of control | dose: 10.0 mg/kg/injection, schedule: Q01DX009 (ip), vehicle: saline 101 % of control

COC(=O)CC(=O)C=P(c1ccccc1)(c1ccccc1)c1ccccc1
inactive: [15] 98 % of control | [16] 103 % of control | [3] 107 % of control | [4] 113 % of control

CCCCCCCCCC(=O)CC
inactive: [5] 100 % of control | [6] 99 % of control | [7] 100 % of control

CCCCCCCCCC(O)CC (stereo not drawn)
inactive: [6] 98 % of control | [7] 96 % of control | [8] 100 % of control

From PubChem BioAssay AID192 (DTP/NCI, 2004)
